According to publication PMC3292552, “Post-Translational Regulation and Trafficking of the Granulin-Containing Protease RD21 of Arabidopsis thaliana” (PLoS ONE, 2012):

Key:
[1] = target: T1, RD21 (Arabidopsis thaliana, UniProt P43297); experiment: competition of DCG-04 labelling; protection of rubisco from degradation; assay type: biochemical; details: covalent; 20 µM E-64 preincubation, 0.2 µM DCG-04, pH 6, 1 mM DTT; leaf extract
T1 construct: gene RD21A; full-length preproprotein agroinfiltrated in Nicotiana benthamiana, two (pRH628) or three (pRH629) extra C-terminal Ser; crude leaf extract; processed in planta to iRD21/mRD21; mRD21 N-termini DELPE, LPE, GDELPE; also endogenous in Arabidopsis leaf extract
T1 sequence (P43297 137-462): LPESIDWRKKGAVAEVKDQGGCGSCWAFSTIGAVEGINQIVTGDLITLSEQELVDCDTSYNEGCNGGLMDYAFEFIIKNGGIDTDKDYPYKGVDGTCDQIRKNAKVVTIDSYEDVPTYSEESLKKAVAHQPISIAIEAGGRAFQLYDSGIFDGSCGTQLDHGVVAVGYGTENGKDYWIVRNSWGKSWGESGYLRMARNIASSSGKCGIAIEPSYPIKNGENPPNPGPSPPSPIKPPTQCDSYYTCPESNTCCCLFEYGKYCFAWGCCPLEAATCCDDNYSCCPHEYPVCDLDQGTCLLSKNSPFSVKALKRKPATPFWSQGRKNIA

[2] = target: T2, RD21 (Arabidopsis thaliana, UniProt P43297, C161A); experiment: competition of DCG-04 labelling; assay type: biochemical; details: 20 µM E-64 preincubation, 0.2 µM DCG-04, pH 6; catalytic Cys absent; leaf extract
T2 construct: gene RD21A; full-length preproprotein agroinfiltrated in Nicotiana benthamiana, two (pRH628) or three (pRH629) extra C-terminal Ser; crude leaf extract; processed in planta to iRD21/mRD21; mRD21 N-termini DELPE, LPE, GDELPE; also endogenous in Arabidopsis leaf extract
T2 sequence (P43297 137-462 C161A): as the sequence (P43297 137-462) above, with C25A counted along it

## CC(C)C[C@H](NC(=O)[C@H]1O[C@@H]1C(=O)O)C(=O)NCCCCNC(=N)N [E-64]
[1]
  competition of DCG-04 labelling; protection of rubisco from degradation: the reaction with DCG-04 can be prevented by preincubation with E-64
[2]
  competition of DCG-04 labelling: a weak, E-64-competable biotinylation occurs of iRD21
